Data: publication PMC8097335, “A High‐Affinity Calmodulin‐Binding Site in the CyaA Toxin Translocation Domain is Essential for Invasion of Eukaryotic Cells” (Advanced Science, 2021)
pKd: −log10 of the molar value.

How the values were obtained:
[1] = Peptide titrations by SUVs followed by tryptophan fluorescence (solution-to-membrane partition); type: physicochemical
Outline: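 Peptides were titrated with POPC:POPG (8:2) SUVs at 25°C, with tryptophan fluorescence excited at 280 nm and emission recorded 300–400 nm. The 330/370 nm intensity ratio, corrected for SUV baseline, was fitted to a partition model to obtain the solution-to-membrane partition coefficient KX.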

[2] = Membrane permeabilization of ANTS/DPX-loaded LUVs
Method: To monitor membrane permeabilization induced by peptides, ANTS (fluorophore probe) and
DPX (quencher) were encapsulated into large unilamellar vesicles (LUVs). The LUVs were
prepared at a concentration of 10 mM lipid at a POPC:PO PG molar ratio of 8:2 containing 20
mM ANTS and 60 mM DPX. The multilamellar vesicle suspension was extrudedthrough 0.4-
and 0.2 μm polycarbonate filters to produce LUVs. The unencapsulated ANT S a nd DPX we re
removed by gel filtration with a 5 mL Sephadex G -25 column (GE Healthcare Life Sciences ).
For permeabilization assays, LUVs were incubated in buffer A at 0.45 mM lipid
concentration at 25°C in a 101-QS cuvette (Hellma, France) and under constant stirring.
excitation wavelength was set at 390 nm and the emission of ANTS was continuously
measured at 515 nm. The maximum intensity of permeabilization, corresponding to the
maximum recovery of ANTS fluorescence, was measured after addition of 0.1% of Triton
X100. The concentration of membrane-bound peptide s required to induce the recovery of half
intensity of the ANTS fluorescence (C P1/2) was extracted from the permeabilization intensity
a s a function of peptide concentration 1.
LUVs were incubated in buffer B at a lipid concentration of 0.45 mM.
After a few seconds of permeabilization,
holo-Ca M wa s added t o t he solution at a peptide:Ca M molar ratio of 1:3. EDT A wa s
subsequently added in excess to chelate calcium and convert holo -CaM to apo -C a M .

[3] = Synchrotron radiation circular dichroism, alpha-helical content (Bestsel); type: physicochemical; details: 25 °C, far-UV SRCD
Method: Synchrotron Radiation Circular Dichroism
Synchrotron radiation circular dichroism (SRCD) was performed on the DISCO beamline of the synchrotron SOLEIL (Saint -Aubin, France) . Spectra were recorded at 25°C with an integration time of 1.2 s and a bandwidth of 1 nm with a resolution of 1 nm. A far-UV spectrum represents the average of four individual scans. QS cells (Hellma, France) with a pathlength of 20, 50, 100 or 200 μm (depending on final protein concentrations) were used to record spectra in the fa r -UV range (from 190 to 250 nm). CD spectra of peptides and proteins were measured in buffers A and B, 20% of trifluoroethanol (TFE), in the presence of SUVs (POPC :PO PG 8: 2) or Ca M. Secondary structure content was estimated using Bestsel software […]
Table S8: Estimation of the α -helical content of P454-derived peptides. The secondary structure content is estimated using the on-line Bestsel software 17 available at http://bestsel.elte.hu/index.php. […]
peptide in buffer A, in 20% TFE and in the presence of POPC POPG (molar ratio 8:2) at 2 mM lipid concentration. The far -UV CD spectra of several P454-derived peptides are shown […]

[4] = Sedimentation velocity analytical ultracentrifugation; type: physicochemical; details: 57 µM peptide alone, 20 °C, buffer B
Excerpt: 400 nm at a scan rate of 100 nm/min, with an excitation wavelength of 280 nm. Fluorescence emission spectra were corrected for SUV or CaM baselines . Fluorescence intensity ratio at 330 nm over 370 nm was use d to measure the partition coefficient (K X) of peptides between the solution andmembrane s 1, 12 and the affinity (K d) of peptides for CaM 13.
Determination of partition coefficient KX and dissociation constant Kd from […]
The partition coefficient KX is defined as the ratio of protein in the lipid (PL) and in buffer […]
(PW) pha se s 12, 14, expressed by: KKXX = [LL ]? , giving[PPWW ] [PPWW ]= [WW], where [W] the […]
concentration of water (55.5 M) and [L] the lipid concentration. […]
The dissociation constant, Kd, is obtained from titration experiments of the P454-derived peptides by CaM and is expressed as follows: KK dd = [PP ]∗[CCCCCC ][PP:CCCCCC] , given KKdd[CCCCCC]= [PP ][PP :CCCCCC]and the fraction of complex, fP:CaM, i s: ffPP:CCCCCC = [PP :CCCCCC ][PP:CCCCCC]+[PP]= 11+ [PP ]= 11+ KKdd. […]
ratio 1:1 (at 70 µM each). […] Detection of protein concentration as a function of radial position and time was monitored with the ProteomeLab software (Beckman Coulter, […]
Brea, CA, USA) by both absorbance at 280 nm and interferometry. […] SV scans were analyzed using the continuous size distribution model c(s) of the software Sedfit 15. […]

For CC[C@H](C)[C@H](NC(=O)[C@H](C)NC(=O)[C@H](Cc1c[nH]cn1)NC(=O)[C@@H](NC(=O)[C@H](CC(C)C)NC(=O)[C@H](CCCNC(=N)N)NC(=O)[C@H](CCC(N)=O)NC(=O)[C@H](C)NC(=O)[C@H](C)NC(=O)[C@H](C)NC(=O)[C@@H](NC(=O)[C@H](C)NC(=O)[C@H](CCC(N)=O)NC(=O)[C@H](C)NC(=O)CNC(=O)[C@H](CCC(N)=O)NC(=O)[C@H](CC(C)C)NC(=O)[C@H](C)NC(=O)[C@H](CCCNC(=N)N)NC(=O)[C@H](CCC(N)=O)NC(=O)CNC(=O)[C@H](Cc1c[nH]c2ccccc12)NC(=O)[C@H](Cc1c[nH]cn1)NC(=O)[C@H](C)NC(=O)[C@H](CO)NC(=O)[C@H](C)NC(C)=O)C(C)C)C(C)C)C(=O)N[C@@H](C)C(=O)N[C@@H](CC(C)C)C(=O)N[C@@H](CCSC)C(=O)N[C@H](C(=O)N[C@@H](CCC(N)=O)C(N)=O)[C@@H](C)O [P454], the “Partition coefficient KX” value ([1]; POPC:POPG 8:2 SUVs, buffer A pH 7.4, 25 °C, tryptophan fluorescence ratio 330/370 nm, S.D. within ± 10%) was 790 ×10^3, the “Partition coefficient Kx” value ([1]; POPC:POPG 8:2 membranes) was 790 000 and the pKd ([1]; converted from KX: [W]/KX = Kd, [W] = 55.5 M, read-out: Kd for POPC:POPG 8:2) was 4.15. For the same molecule, the “∆GKx for POPC POPG 8:2” value ([1]; ∆GKx = -RT Ln Kx, S.D. within ± 10%) was -8 kcal/mol, the “CP1/2, peptide concentration required to induce recovery of 50% of ANTS fluorescence intensity upon LUVs permeabilization” value ([2]; ANTS:DPX LUVs POPC:POPG 8:2, 0.45 mM lipid, buffer A pH 7.4, 25 °C, ex 390/em 515 nm, S.D. ± 5%) was 0.07 µM and the “Effect of holo-CaM addition on peptide-induced vesicle permeabilization” value ([2]; LUVs 0.45 mM lipid, buffer B (2 mM CaCl2), peptide:CaM molar ratio 1:3) was “immediately stopped”. The “alpha-helical content, TFE 20%” value ([3]; 20% TFE) was 60 ± 2%, the “alpha-helical content, POPC:POPG 8:2” value ([3]; SUVs POPC:POPG 8:2 at 2 mM lipid) was 50 ± 1% and the “alpha-helical content, Solution” value ([3]; buffer A) was 17 ± 2%. It also gave a Sedimentation coefficient [4] of 0.65 S.
